# Laboratory results as given in ChEMBL document CHEMBL6177939, “The role of silicon in drug discovery: a review” (RSC Med Chem, 2024).
# Tests used:
# [1] = In vivo inhibition of AChE activity in Sprague-Dawley rat brain assessed as effective dose; format: functional
# [2] = target: Acetylcholinesterase (Homo sapiens, UniProt P22303); experiment: Binding affinity to AChE (unknown origin) using acetylthiocholine iodide as substrate assessed as inhibition constant by Ellman's method
# [3] = Acute toxicity in ip dosed Sprague-Dawley rat assessed as lethal dose; format: organism-based; details: in vivo
# [4] = target: Histone deacetylase 1 (Homo sapiens, UniProt Q13547); experiment: Inhibition of human recombinant HDAC1 using Ac-Leu-Gly-Lys(Ac)-AMC as substrate incubated for 30 mins by EnSpire plate reader analysis
# Histone deacetylase 1, sequence (Q13547 whole entry): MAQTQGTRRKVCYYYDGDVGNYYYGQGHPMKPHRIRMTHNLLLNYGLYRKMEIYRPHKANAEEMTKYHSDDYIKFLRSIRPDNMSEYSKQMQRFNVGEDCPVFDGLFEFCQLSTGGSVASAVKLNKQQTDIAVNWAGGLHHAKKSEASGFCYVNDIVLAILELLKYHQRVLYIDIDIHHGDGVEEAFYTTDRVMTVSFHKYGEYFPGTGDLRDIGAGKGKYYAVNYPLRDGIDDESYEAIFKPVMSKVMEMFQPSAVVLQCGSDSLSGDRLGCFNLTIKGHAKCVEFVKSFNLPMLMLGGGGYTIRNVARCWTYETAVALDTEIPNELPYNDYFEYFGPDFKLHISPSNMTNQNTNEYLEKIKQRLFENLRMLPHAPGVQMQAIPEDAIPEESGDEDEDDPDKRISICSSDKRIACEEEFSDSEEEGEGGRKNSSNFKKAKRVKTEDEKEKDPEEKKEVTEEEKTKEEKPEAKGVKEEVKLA
# [5] = target: Protein deacetylase HDAC6 (Homo sapiens, UniProt Q9UBN7); experiment: Inhibition of human recombinant HDAC6 using Ac-Leu-Gly-Lys(Ac)-AMC as substrate incubated for 30 mins by EnSpire plate reader analysis
# Protein deacetylase HDAC6, sequence (Q9UBN7 whole entry): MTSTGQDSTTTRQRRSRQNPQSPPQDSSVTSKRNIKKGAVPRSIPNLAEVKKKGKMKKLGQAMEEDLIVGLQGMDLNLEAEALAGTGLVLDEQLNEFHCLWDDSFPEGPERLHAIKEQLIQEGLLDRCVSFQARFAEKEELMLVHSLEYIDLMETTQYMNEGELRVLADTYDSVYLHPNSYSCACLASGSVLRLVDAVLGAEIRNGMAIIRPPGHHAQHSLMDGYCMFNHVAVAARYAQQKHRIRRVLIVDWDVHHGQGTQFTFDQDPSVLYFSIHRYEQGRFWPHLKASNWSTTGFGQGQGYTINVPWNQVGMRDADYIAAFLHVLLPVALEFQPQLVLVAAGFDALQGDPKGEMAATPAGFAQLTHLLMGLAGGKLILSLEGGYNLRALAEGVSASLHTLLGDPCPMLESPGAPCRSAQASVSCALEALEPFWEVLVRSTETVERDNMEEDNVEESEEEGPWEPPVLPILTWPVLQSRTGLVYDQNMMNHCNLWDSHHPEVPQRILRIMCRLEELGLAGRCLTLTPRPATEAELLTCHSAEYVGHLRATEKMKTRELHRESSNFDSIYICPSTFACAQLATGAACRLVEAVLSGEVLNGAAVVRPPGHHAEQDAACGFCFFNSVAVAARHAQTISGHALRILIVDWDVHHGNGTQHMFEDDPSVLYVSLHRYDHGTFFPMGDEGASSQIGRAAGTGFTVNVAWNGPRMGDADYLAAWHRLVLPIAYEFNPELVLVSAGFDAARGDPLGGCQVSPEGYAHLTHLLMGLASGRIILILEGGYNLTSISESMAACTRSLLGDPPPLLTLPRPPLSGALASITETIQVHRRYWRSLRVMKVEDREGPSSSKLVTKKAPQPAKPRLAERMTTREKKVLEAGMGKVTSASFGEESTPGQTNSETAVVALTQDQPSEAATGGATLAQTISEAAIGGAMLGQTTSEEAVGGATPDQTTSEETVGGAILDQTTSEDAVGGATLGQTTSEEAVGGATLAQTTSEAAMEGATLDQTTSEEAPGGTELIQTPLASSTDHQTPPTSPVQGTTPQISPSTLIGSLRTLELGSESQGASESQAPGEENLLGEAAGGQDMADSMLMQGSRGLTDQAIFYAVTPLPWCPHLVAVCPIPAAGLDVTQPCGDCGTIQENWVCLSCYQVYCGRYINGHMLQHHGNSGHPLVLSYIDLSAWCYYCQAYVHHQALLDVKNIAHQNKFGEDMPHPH
# [6] = target: Histone deacetylase 5 (Homo sapiens, UniProt Q9UQL6); experiment: Inhibition of human recombinant HDAC5 using Ac-Leu-Gly-Lys(Tfa)-AMC as substrate incubated for 30 mins by EnSpire plate reader analysis
# [7] = target: Histone deacetylase 4 (Homo sapiens, UniProt P56524); experiment: Inhibition of human recombinant HDAC4 using Ac-Leu-Gly-Lys(Tfa)-AMC as substrate incubated for 30 mins by EnSpire plate reader analysis
# Histone deacetylase 4, sequence (P56524 whole entry): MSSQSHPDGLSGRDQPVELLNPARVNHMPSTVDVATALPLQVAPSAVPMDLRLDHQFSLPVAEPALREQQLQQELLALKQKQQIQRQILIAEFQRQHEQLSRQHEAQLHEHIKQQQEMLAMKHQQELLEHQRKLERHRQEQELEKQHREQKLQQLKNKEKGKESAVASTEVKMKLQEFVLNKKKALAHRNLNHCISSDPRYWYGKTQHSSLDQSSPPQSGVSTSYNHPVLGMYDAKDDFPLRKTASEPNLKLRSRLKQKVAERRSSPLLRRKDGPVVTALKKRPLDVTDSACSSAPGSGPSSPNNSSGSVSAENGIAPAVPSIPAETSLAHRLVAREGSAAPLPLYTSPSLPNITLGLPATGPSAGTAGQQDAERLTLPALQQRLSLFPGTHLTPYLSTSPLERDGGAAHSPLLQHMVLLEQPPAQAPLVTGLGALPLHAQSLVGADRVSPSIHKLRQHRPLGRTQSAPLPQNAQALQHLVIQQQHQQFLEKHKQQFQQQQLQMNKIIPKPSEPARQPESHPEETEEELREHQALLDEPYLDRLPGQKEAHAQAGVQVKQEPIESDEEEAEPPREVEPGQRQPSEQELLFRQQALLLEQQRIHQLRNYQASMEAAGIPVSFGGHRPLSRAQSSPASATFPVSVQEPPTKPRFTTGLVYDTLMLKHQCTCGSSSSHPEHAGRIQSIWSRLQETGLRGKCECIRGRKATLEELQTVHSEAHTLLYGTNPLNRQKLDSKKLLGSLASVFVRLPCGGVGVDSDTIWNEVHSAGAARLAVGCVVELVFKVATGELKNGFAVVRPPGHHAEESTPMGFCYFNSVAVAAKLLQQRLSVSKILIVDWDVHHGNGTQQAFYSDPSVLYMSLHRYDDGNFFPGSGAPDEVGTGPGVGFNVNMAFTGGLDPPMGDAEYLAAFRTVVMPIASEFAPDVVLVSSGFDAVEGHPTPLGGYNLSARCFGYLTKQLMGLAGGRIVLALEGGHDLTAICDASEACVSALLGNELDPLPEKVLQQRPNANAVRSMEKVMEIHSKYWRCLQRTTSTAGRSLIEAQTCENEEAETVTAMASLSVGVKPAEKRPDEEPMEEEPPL
# [8] = target: Histone deacetylase 2 (Homo sapiens, UniProt Q92769)
# [9] = target: Interstitial collagenase (Homo sapiens, UniProt P03956); experiment: Inhibition of MMP-1 (unknown origin)
# [10] = tested on: Mus musculus; experiment: Antiinflammatory activity against carrageenin-induced paw edema AKR mouse model assessed as inhibition of CPE at 0.01 micromol/kg, ip relative to control; format: functional; set-up: scale not given: the % may be the effect or the level left; details: dose 0.01 µmol/kg
# [11] = Inhibition of soya bean lipoxygenase; set-up: species or system Glycine max
# [12] = tested on: Bacillus subtilis; experiment: Antibacterial activity against Bacillus subtilis B-407 (all Russian collections of micro-organism) assessed as reduction in bacterial growth incubated for 24 hrs by broth micro-dilution method; format: functional
# [13] = tested on: Enterococcus durans; experiment: Antibacterial activity against Enterococcus durans B-603 (all Russian collections of micro-organism) assessed as reduction in bacterial growth incubated for 24 hrs by broth micro-dilution method; format: functional
# [14] = Antiproliferative activity against human WHCO1 cells assessed as reduction in cell viability incubated for 48 hrs by MTT assay; format: functional, cell-based; details: WHCO1, 48 h
# [15] = tested on: Plasmodium falciparum; experiment: Antimalarial activity against […] Plasmodium falciparum Dd2 assessed as reduction in parasite growth; format: functional, organism-based
# [16] = tested on: Plasmodium falciparum; experiment: Antimalarial activity against chloroquine-sensitive Plasmodium falciparum NF54 assessed as reduction in parasite growth; format: functional, organism-based
# [17] = tested on: Bel-7402; experiment: Cytotoxicity against human Bel-7402 cells assessed as inhibition of cell growth at 5 ug/ml relative to control; format: functional
# [18] = tested on: HCT-8; experiment: Cytotoxicity against human HCT-8 cells assessed as inhibition of cell growth at 5 ug/ml relative to control; format: functional
# [19] = tested on: HepG2; experiment: Antiproliferative activity against human HepG2 cells; format: functional, cell-based
# [20] = tested on: A549; experiment: Antiproliferative activity against human A549 cells; format: functional, cell-based
# [21] = tested on: Tetranychus cinnabarinus; experiment: Toxicity in Tetranychus cinnabarinus assessed as lethal dose; format: organism-based
# [22] = tested on: Escherichia coli; experiment: Antibacterial activity against Escherichia coli B-1238 (all Russian collections of micro-organism) assessed as reduction in bacterial growth by broth micro-dilution method; format: functional
# [23] = tested on: MDA-MB-435; experiment: Antiproliferative activity against human MDA-MB-435 cells assessed as reduction in cell viability incubated for 24 hrs by MTT assay; format: functional, cell-based; details: MDA-MB-435, 24 h
# [24] = tested on: HeLa; experiment: Antiproliferative activity against human Hela cells assessed as reduction in cell viability incubated for 24 hrs by MTT assay; format: functional, cell-based
# [25] = tested on: HT-29; experiment: Antiproliferative activity against human HT-29 cells assessed as reduction in cell viability incubated for 24 hrs by MTT assay; format: functional, cell-based; details: HT-29, 24 h
# [26] = tested on: Human immunodeficiency virus 1; experiment: Antiviral activity against HIV-1 IIIB infected in human MT2 cells assessed as reduction in virus-induced cytopathic effect incubated for 4 days by spectrophotometric based MTT assay; format: functional, organism-based; details: Human immunodeficiency virus 1, IIIB, MT2, 96 h
# [27] = target: Human immunodeficiency virus type 1 reverse transcriptase (Human immunodeficiency virus 1, UniProt Q72547); experiment: Inhibition of recombinant HIV-1 reverse transcriptase
# [28] = tested on: Penicillium chrysogenum; experiment: Antifungal activity against Penicillium chrysogenum ATCC 20044 assessed as reduction in fungal growth; format: functional
# [29] = tested on: Fusarium solani; experiment: Antifungal activity against Fusarium solani ATCC 20327 assessed as reduction in fungal growth; format: functional
# [30] = tested on: Aspergillus fumigatus; experiment: Antifungal activity against Aspergillus fumigatus ATCC 66567 assessed as reduction in fungal growth; format: functional
# [31] = tested on: Escherichia coli; experiment: Antibacterial activity against Escherichia coli; format: functional
# [32] = tested on: Bacillus subtilis; experiment: Antibacterial activity against Bacillus subtilis; format: functional
# [33] = tested on: Staphylococcus epidermidis; experiment: Antibacterial activity against methicillin-resistant Staphylococcus epidermidis 3382 assessed as reduction in bacterial cell growth by broth micro-dilution method; format: functional
# [34] = tested on: Pseudomonas aeruginosa; experiment: Antibacterial activity against Pseudomonas aeruginosa PAO1 assessed as reduction in bacterial growth by broth micro-dilution method; format: functional
# [35] = tested on: Staphylococcus aureus; experiment: Antibacterial activity against methicillin-resistant Staphylococcus aureus assessed as reduction in bacterial cell growth by broth micro-dilution method; format: functional
# [36] = tested on: Bacillus subtilis; experiment: Antibacterial activity against Bacillus subtilis B-407 (all Russian collections of micro-organism) assessed as reduction in bacterial growth by broth micro-dilution method; format: functional
# [37] = tested on: Enterococcus durans; experiment: Antibacterial activity against Enterococcus durans B-603 (all Russian collections of micro-organism) assessed as reduction in bacterial growth by broth micro-dilution method; format: functional
# [38] = tested on: Giardia intestinalis; experiment: Antiparasitic activity against Giardia intestinalis assessed as reduction in parasite growth incubated for 24 hrs by MTT assay; format: functional, organism-based; details: Giardia duodenalis
# [39] = tested on: Trichomonas vaginalis; experiment: Antiparasitic activity against Trichomonas vaginalis assessed as reduction in parasite growth measured for 24 hrs by MTT assay; format: functional, organism-based
# [40] = tested on: Human immunodeficiency virus 1; experiment: Antiviral activity against HIV-1 infected in human MT4 cells; format: functional, organism-based; details: Human immunodeficiency virus 1, MT4
# [41] = target: T1, Angiotensin-converting enzyme (Homo sapiens, UniProt P12821); experiment: Binding affinity to ACE (unknown origin) assessed as inhibition constant
# T1 sequence (P12821 whole entry): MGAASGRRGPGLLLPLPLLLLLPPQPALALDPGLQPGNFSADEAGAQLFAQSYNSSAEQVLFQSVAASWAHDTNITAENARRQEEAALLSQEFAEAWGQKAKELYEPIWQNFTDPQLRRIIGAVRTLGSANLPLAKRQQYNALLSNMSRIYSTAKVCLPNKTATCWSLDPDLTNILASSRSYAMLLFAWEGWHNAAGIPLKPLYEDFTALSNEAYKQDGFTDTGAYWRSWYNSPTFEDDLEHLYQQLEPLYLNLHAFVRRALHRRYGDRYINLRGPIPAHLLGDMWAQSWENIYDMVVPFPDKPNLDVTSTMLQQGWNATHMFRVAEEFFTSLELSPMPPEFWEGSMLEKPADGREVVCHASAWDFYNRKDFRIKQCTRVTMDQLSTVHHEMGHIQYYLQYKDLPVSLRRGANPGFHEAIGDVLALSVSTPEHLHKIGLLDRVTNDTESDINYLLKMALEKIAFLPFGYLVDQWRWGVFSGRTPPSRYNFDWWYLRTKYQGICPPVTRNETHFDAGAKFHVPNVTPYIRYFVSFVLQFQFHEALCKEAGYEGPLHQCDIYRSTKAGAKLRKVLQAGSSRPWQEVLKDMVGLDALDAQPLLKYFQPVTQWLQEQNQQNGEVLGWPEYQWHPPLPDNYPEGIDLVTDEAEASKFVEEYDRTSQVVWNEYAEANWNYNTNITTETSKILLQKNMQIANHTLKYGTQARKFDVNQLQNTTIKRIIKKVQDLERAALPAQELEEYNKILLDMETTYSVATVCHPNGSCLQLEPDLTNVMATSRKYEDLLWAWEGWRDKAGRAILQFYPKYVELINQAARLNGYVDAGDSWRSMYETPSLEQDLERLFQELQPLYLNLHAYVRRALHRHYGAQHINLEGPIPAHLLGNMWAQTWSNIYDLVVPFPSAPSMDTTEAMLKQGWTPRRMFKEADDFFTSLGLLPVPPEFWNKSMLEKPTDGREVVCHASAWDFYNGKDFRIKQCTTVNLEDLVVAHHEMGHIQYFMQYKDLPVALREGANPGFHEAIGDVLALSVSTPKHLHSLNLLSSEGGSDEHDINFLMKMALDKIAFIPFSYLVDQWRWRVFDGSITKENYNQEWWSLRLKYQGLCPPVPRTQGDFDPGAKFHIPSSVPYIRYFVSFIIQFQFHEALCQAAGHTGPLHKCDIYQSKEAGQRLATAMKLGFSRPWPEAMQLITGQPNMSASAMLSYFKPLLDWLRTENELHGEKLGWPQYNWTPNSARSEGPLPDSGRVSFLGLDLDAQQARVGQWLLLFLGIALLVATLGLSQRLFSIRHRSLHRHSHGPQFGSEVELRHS
# [42] = tested on: WiDr; experiment: Growth inhibition of human WiDr cells measured for 48 hrs by SRB assay; format: functional
# [43] = tested on: T47D; experiment: Growth inhibition of human T47D cells measured for 48 hrs by SRB assay; format: functional
# [44] = tested on: HeLa; experiment: Growth inhibition of human HeLa cells measured for 48 hrs by SRB assay; format: functional
# [45] = target: T1, Angiotensin-converting enzyme; experiment: Inhibition of ACE (unknown origin) using Hip-His-Leu-OH peptide as substrate by fluorimetric analysis
# Acetylcholinesterase, sequence (P22303 whole entry): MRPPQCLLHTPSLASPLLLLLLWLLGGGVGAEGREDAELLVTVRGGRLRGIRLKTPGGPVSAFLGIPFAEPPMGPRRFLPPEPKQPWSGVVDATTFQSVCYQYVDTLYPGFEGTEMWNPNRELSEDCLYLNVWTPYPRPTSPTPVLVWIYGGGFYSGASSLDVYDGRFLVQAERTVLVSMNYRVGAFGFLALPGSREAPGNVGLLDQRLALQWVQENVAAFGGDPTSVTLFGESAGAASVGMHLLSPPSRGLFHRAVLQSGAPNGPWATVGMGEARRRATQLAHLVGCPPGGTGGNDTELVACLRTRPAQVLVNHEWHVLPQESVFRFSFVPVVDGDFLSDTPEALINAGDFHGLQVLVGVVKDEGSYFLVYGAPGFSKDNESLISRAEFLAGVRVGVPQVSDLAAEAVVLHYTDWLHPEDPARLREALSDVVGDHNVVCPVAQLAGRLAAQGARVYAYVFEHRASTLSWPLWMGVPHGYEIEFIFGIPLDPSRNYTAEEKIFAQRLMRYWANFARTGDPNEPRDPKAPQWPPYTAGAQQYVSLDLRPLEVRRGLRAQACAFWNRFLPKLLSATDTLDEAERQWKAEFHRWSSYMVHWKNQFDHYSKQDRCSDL
smiles,measurement,setting,value
C[Si](C)(C)c1cccc(C(=O)C(F)(F)F)c1,ED50,[1],2.5 mg/kg
same,Ki,[2],0.047 nM
same,LD50,[3],180 mg/kg
C[Si](O)(O)CCCCCCC(=O)Nc1ccccc1,IC50,[4],600 nM
same,IC50,[5],600 nM
same,IC50,[6],600 nM
same,IC50,[7],600 nM
same,IC50,[8],600 nM
C[Si](C)(C)n1c(=S)c(=P(c2ccccc2)(c2ccccc2)c2ccccc2)/c1=N/c1ccccc1,IC50,[9],~41 nM
C[Si](C)(C)CCC[n+]1ccsc1N.[I-],Activity,[10],55%
same,IC50,[11],10 nM
COc1ccc(-c2cc(CNCCC[Si-]345OCC[N+]3(CCO4)CCO5)on2)cc1 (stereo not given),MIC,[12],6.2 µg/mL
same,MIC,[13],12.5 µg/mL
C[Si](C)(C)CNc1ccnc2cc(Cl)ccc12,IC50,[14],4.41 µM
same,IC50,[15],525 nM
same,IC50,[16],248 nM
CC(C)OP(=O)(NCCC[Si-]123OCC[N+]1(CCO2)CCO3)OCCn1c(=O)c(F)cn(C2CCCO2)c1=O (stereo not given),inhibition at 5 µg/mL,[17],29.3%
same,inhibition at 5 µg/mL,[18],29.3%
COc1ccc([Si](C)(C)[C@@H]2[C@@H](CCn3cc(CCO)nn3)O[C@]3(C(=O)N4c5c(ccc(OC)c53)C(C)=CC4(C)C)[C@H]2C)cc1,EC50,[19],32.5 µM
same,EC50,[20],42.8 µM
C/C(=C(\OC(=O)C(C)(C)C)c1c(C)c(C)nn1C)c1ccc([Si](C)(C)C)cc1,LC50,[21],0.062 ng/mL
O=C(NCCC[Si-]123OCC[N+]1(CCO2)CCO3)c1cc2c([nH]1)CCCC2 (stereo not given),MIC,[22],62.5 µg/mL
CC1C[N+]23CC(C)O[Si-]2(CCC/N=C/c2cccc([N+](=O)[O-])c2)(O1)OC(C)C3 (stereo not given),IC50,[23],12.5 µg/mL
same,IC50,[24],11.8 µg/mL
same,IC50,[25],12.3 µg/mL
C[Si](O)(O[Si](C)(CCCn1cnc2c(N)ncnc21)c1ccccc1)c1ccccc1 (stereo not given),IC50,[26],10 µM
same,IC50,[27],6 µM
COc1ccc(O)c(/C=N/CCC[Si-]234OCC[N+]2(CCO3)CCO4)c1 (stereo not given),MIC,[28],0.08 µg/mL
same,MIC,[29],0.08 µg/mL
same,MIC,[30],0.08 µg/mL
CCN(CC)CC.S=C(S)NCCC[Si-]123OCC[N+]1(CCO2)CCO3 (stereo not given),MIC,[31],0.765 µg/mL
same,MIC,[32],0.8 µg/mL
Fc1ccc(/N=C/c2c(OCc3cn(CCC[Si-]456OCC[N+]4(CCO5)CCO6)nn3)ccc3ccccc23)cc1 (stereo not given),MIC,[33],3.25 µg/mL
same,MIC,[34],13.2 µg/mL
same,MIC,[35],3.25 µg/mL
O=C(NCCC[Si-]123OCC[N+]1(CCO2)CCO3)c1ccc[nH]1 (stereo not given),MIC,[36],6.2 µg/mL
same,MIC,[37],3.1 µg/mL
CC1C[N+]23CC(C)O[Si-]2(CCC/N=C/c2ccc4c5c6c(ccc25)C=CCC6=CC4)(O1)OC(C)C3 (stereo not given),IC50,[38],53.3 µM
same,IC50,[39],1750 nM
Cc1cccc(C(O)c2c(C(C)C)c(=O)[nH]c(=O)n2COCc2ccccc2)c1 (stereo not given),EC50,[40],200 nM
CC(C)C[C@H](C[Si](O)(O)CNC(=O)CCc1ccccc1)C(=O)NC(=O)N[C@@H](CC(C)C)C(=O)O,Ki,[41],10 nM
CC(C)(C)[Si](Oc1ccc2oc(=O)ccc2c1)(c1ccccc1)c1ccccc1,GI50,[42],32.2 µM
same,GI50,[43],26.6 µM
same,GI50,[44],24.1 µM
CC(CS)C(=O)N1C[Si](C)(C)C[C@H]1C(=O)O (mixture of isomers),IC50,[45],43 nM
